Assay results published in US20120264735A1 (priority 2009, published 2012).

What follows are compounds tested against T1, c-Met kinase (recombinant c-Met) (Homo sapiens, UniProt P08581) (assay: In vitro kinase assay I (homogeneous time-resolved fluorescence tyrosine kinase assay)).
T1 construct: 0.27 nM recombinant c-Met
T1 sequence (P08581 25-1390): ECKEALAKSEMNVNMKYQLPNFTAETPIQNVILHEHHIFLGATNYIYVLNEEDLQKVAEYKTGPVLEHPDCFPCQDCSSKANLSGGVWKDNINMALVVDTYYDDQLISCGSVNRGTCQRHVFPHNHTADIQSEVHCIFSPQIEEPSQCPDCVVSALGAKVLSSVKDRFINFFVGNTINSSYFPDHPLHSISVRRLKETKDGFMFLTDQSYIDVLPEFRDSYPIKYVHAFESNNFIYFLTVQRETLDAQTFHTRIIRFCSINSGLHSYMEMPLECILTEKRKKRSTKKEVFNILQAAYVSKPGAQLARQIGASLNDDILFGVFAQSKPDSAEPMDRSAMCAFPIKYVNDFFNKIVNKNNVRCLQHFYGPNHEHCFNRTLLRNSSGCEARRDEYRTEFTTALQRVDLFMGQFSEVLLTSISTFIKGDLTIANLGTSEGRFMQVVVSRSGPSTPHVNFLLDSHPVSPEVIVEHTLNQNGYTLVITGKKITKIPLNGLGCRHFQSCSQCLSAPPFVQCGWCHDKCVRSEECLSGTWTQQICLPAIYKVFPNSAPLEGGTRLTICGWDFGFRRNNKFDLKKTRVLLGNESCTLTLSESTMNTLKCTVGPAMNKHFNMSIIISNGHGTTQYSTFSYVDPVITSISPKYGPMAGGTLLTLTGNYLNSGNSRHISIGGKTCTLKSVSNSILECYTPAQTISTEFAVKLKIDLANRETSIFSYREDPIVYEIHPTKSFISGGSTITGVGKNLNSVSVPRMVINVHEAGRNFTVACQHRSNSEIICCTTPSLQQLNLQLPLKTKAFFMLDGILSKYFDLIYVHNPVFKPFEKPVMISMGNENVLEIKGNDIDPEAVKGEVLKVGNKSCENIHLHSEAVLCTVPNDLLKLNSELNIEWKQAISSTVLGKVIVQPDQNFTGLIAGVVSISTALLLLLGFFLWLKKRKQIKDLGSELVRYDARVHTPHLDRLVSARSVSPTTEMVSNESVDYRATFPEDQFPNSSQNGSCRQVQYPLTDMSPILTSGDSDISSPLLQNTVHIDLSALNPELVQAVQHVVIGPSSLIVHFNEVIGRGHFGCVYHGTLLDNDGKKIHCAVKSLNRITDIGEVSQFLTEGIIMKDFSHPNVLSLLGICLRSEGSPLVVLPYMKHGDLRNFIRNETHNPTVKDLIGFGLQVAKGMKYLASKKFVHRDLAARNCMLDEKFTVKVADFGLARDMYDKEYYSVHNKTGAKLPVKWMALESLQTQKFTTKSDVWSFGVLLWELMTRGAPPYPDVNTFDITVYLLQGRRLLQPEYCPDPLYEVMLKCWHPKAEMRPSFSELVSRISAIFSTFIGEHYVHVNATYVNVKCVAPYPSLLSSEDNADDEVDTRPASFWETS
Type: biochemical
Method: The kinase activities of c-Met are measured using a modified version of the homogeneous-time-resolved tyrosine kinase assay described by Park et al. (1999, Anal. Biochem. 269:94-104).
The procedure for determining the potency of a compound to inhibit c-Met kinase comprises the following steps: • 1. Prepare 3-fold serial diluted compound solutions in 100% dimethyl sulfoxide (DMSO) at 20× of the desired final concentrations in a 384-well plate. • 2. Prepare a master reaction mix containing 6.67 mM MgCl2, 133.3 mM NaCl, 66.7 mM Tris-HCl (pH 7.4), 0.13 mg/ml BSA, 2.67 mM dithiothreitol, 0.27 nM recombinant c-Met and 666.7 nM biotinylated synthetic peptide substrate (biotin-ahx-EQEDEPEGDYFEWLE-CONH2) (SEQ.ID.NO.:1). • 3. In a black assay plate, add 1.5 μl of compound solution (or DMSO) and 22.5 μl of master reaction mix per well. Initiate the kinase reaction by adding 6 μl of 0.25 mM MgATP per well. Allow the reactions to proceed for 60 min at room temperature. The final conditions for the reaction are 0.2 nM c-Met, 0.5 μM substrate, 50 μM MgATP, 5 mM MgCl2, 100 mM NaCl, 2 mM DTT, 0.1 mg/ml BSA, 50 mM Tris (pH 7.4) and 5% DMSO. • 4. Stop the kinase reaction with 30 μl of Stop/Detection buffer containing 10 mM EDTA, 25 mM HEPES, 0.1% TRITON X-100, 0.750 nM Eu-chelate labeled anti-phosphotyrosine antibody PY20 (cat. #AD0067, PerkinElmer) and 50 μg/ml Streptavidin-allophycocyanin conjugate (cat. #PJ25S, Prozyme). • 5. Read HTRF signals on a Victor reader (PerkinElmer) in HTRF mode after 60-min incubation at room temperature in the dark. • 6. IC50 is determined by fitting the observed relationship between compound concentration and HTRF signal with a 4-parameter logistic equation. II. GTL-16 pY1349 Cell-Based Assay
Compound `Cn1cc(-n2ccc(=O)c(Cc3cccc(-c4cnccn4)c3)n2)cn1` [Example 38, 1-(1-methyl-1H-pyrazol-4-yl)-3-[3-(pyrazin-2-yl)benzyl]pyridazin-4(1H)-one] has an IC50 of 1000 to 3000 nM. `CCCNC(=O)Nc1cccc(Cc2nn(-c3cnn(C)c3)ccc2=O)c1` [Example 489, 1-(3-{[1-(1-methyl-1H-pyrazol-4-yl)-4-oxo-1,4-dihydropyridazin-3-yl]methyl}phenyl)-3-propylurea] gave an IC50 of less than 100 nM. For `O=C(Nc1cccc(Cc2nn(-c3cc(F)cc(F)c3)ccc2=O)c1)OCCN1CCS(=O)(=O)CC1` [Example 517, 2-(1,1-dioxidothio-morpholin-4-yl)ethyl (3-{[1-(3,5-difluorophenyl)-4-oxo-1,4-dihydropyridazin-3-yl]methyl}phenyl)carbamate], the IC50 was less than 100 nM. For `CCn1cc(-n2ccc(=O)c(C(C)c3cccc(-c4ncn(CC)n4)c3)n2)cn1` (single isomer, unassigned) [Example 687, 1-(1-ethyl-1H-pyrazol-4-yl)-3-{(1R or S)-1-[3-(1-ethyl-1H-1,2,4-triazol-3-yl)phenyl]ethyl} pyridazin-4(1H)-one], the IC50 was less than 100 nM. `CCOc1cnc2ccc(Cc3nn(-c4cnn(C)c4)ccc3=O)cc2c1` [Example 59, 3-[(3-ethoxyquinolin-6-yl)methyl]-1-(1-methyl-1H-pyrazol-4-yl)pyridazin-4(1H)-one] was tested, and the IC50 was 100 to 1000 nM. With `CCOc1cnc(-c2cccc(Oc3nn(-c4cnn(C)c4)ccc3=O)c2)nc1` [Example 755, 3-[3-(5-Ethoxypyrimidin-2-yl)phenoxy]-1-(1-methyl-1H-pyrazol-4-yl)pyridazin-4(1H)-one] the IC50 was 1000 to 3000 nM. `CCOc1cnc(-c2cccc(Cc3nn(-c4cc(Cl)cc(C#N)c4)ccc3=O)c2)nc1` [Example 140, 3-chloro-5-{3-[3-(5-ethoxypyrimidin-2-yl)benzyl]-4-oxopyridazin-1(4H)-yl}benzonitrile] was tested, and the IC50 was less than 100 nM. With `Cn1cc(-n2ccc(=O)c(Cc3cccc(-c4ncc(OC5CCOCC5)cn4)c3)n2)cn1` [Example 277, 1-(1-methyl-1H-pyrazol-4-yl)-3-{3-[5-(tetrahydro-2H-pyran-4-yloxy)pyrimidin-2-yl]benzyl}pyridazin-4(1H)-one] the IC50 was less than 100 nM. Work on `CCn1cc(-n2ccc(=O)c(Cc3cccc(NC(=O)OCC(C)C)c3)n2)cn1` [Example 110, 2-methylpropyl (3-{[1-(1-ethyl-1H-pyrazol-4-yl)-4-oxo-1,4-dihydropyridazin-3-yl]methyl}phenyl)carbamate] yielded an IC50 of less than 100 nM. With `CCOc1cnc(-c2cccc(Cc3nn(-c4cnn(C)c4)ccc3=O)c2F)nc1` [Example 121, 3-[3-(5-ethoxypyrimidin-2-yl)-2-fluorobenzyl]-1-(1-methyl-1H-pyrazol-4-yl)pyridazin-4(1H)-one] the IC50 was 100 to 1000 nM. Work on `Cn1cc(-n2ccc(=O)c(Cc3cccc(-c4ncn(CCCC5CCCO5)n4)c3)n2)cn1` (racemic) [Example 721, rac-1-(1-methyl-1H-pyrazol-4-yl)-3-(3-{1-[3-(tetrahydrofuran-2-yl)propyl]-1H-1,2,4-triazol-3-yl}benzyl)pyridazin-4(1H)-one] yielded an IC50 of less than 100 nM. In the case of `CCn1cc(-n2ccc(=O)c(C(C)c3cccc(-c4ncc(OC5CN(C(=O)OC(C)(C)C)C5)cn4)c3)n2)cn1` (single isomer, unassigned) [Example 292, tert-butyl 3-{[2-(3-{(1R or S)-1-[1-(1-ethyl-1H-pyrazol-4-yl)-4-oxo-1,4-dihydropyridazin-3-yl]ethyl}phenyl)pyrimidin-5-yl]oxy}azetidine-1-carboxylate], the IC50 is reported as less than 100 nM. For `CCOC(=O)Nc1cccc(Cc2nn(-c3cccc(C#N)c3)ccc2=O)c1` [Example 135, ethyl (3-{[1-(3-cyanophenyl)-4-oxo-1,4-dihydropyridazin-3-yl]methyl}phenyl)carbamate], the IC50 was less than 100 nM. Compound `O=C(Nc1cccc(Cc2nn(-c3cnn(CC(F)(F)F)c3)ccc2=O)c1)OCCN1CCOCC1` [Example 116, 2-morpholin-4-ylethyl [3-({4-oxo-1-[1-(2,2,2-trifluoroethyl)-1H-pyrazol-4-yl]-1,4-dihydropyridazin-3-yl}methyl)phenyl]carbamate] has an IC50 of less than 100 nM. Work on `Cn1cc(-n2ccc(=O)c(Cc3cccc(-c4ncc(-c5ccnnc5)cn4)c3)n2)cn1` [Example 425, 1-(1-methyl-1H-pyrazol-4-yl)-3-[3-(5-pyridazin-4-ylpyrimidin-2-yl)benzyl]pyridazin-4(1H)-one] yielded an IC50 of less than 100 nM. With `COCCOC(=O)Nc1cccc(Cc2nn(-c3cnn(C)c3)ccc2=O)c1` [Example 54, 2-methoxyethyl (3-{[1-(1-methyl-1H-pyrazol-4-yl)-4-oxo-1,4-dihydropyridazin-3-yl]methyl}phenyl)carbamate] the IC50 was less than 100 nM. `Cn1cc(-n2ccc(=O)c(Cc3cccc(NC(=O)OC[C@H]4CCCN4)c3)n2)cn1` [Example 615, (2R)-pyrrolidin-2-ylmethyl (3-{[1-(1-methyl-1H-pyrazol-4-yl)-4-oxo-1,4-dihydropyridazin-3-yl]methyl}phenyl)carbamate] was tested, and the IC50 was 100 to 1000 nM. Work on `O=c1ccn(-c2ccc(F)c(F)c2)nc1Cc1cccc(-c2ncc(OCC3COCCO3)cn2)c1` (single isomer, unassigned) [Example 346, 1-(3,4-difluorophenyl)-3-(3-{5-[(2S or R-1,4-dioxan-2-ylmethoxy]pyrimidin-2-yl}benzyl)pyridazin-4(1H)-one] yielded an IC50 of less than 100 nM. Compound `Cn1cc(-n2ccc(=O)c(Cc3cccc(-c4ncc(OCC5CCOCC5)cn4)c3)n2)cn1` [Example 262, 1-(1-methyl-1H-pyrazol-4-yl)-3-{3-[5-(tetrahydro-2H-pyran-4-ylmethoxy)pyrimidin-2-yl]benzyl}pyridazin-4(1H)-one] has an IC50 of less than 100 nM. `CCOc1cnc2ccc(C(C)c3nn(-c4cnn(CC)c4)ccc3=O)cc2c1` (single isomer, unassigned) [Example 226, 3-[(1S or R)-1-(3-ethoxyquinolin-6-yl)ethyl]-1-(1-ethyl-1H-pyrazol-4-yl)pyridazin-4(1H)-one] gave an IC50 of 100 to 1000 nM. `Cn1cc(-n2ccc(=O)c(Cc3cccc(-c4ncc(-c5ccc(F)cn5)cn4)c3)n2)cn1` [Example 418, 3-{3-[5-(5-fluoropyridin-2-yl)pyrimidin-2-yl]benzyl}-1-(1-methyl-1H-pyrazol-4-yl)pyridazin-4(1H)-one] gave an IC50 of less than 100 nM. For `CC(C)COC(=O)Nc1cccc(Cc2nn(-c3cnn(CCCC(=O)N4CCCCC4)c3)ccc2=O)c1` [Example 699, 2-methylpropyl [3-({4-oxo-1-[1-(4-oxo-4-piperidin-1-ylbutyl)-1H-pyrazol-4-yl]-1,4-dihydropyridazin-3-yl}methyl)phenyl] carbamate], the IC50 was less than 100 nM. With `Cn1cc(-n2ccc(=O)c(Cc3cccc(-c4ncn(CC(F)(F)CN5CCOCC5)n4)c3)n2)cn1` [Example 712, 3-{3-[1-(2,2-difluoro-3-morpholin-4-ylpropyl)-1H-1,2,4-triazol-3-yl]benzyl}-1-(1-methyl-1H-pyrazol-4-yl)pyridazin-4(1H)-one] the IC50 was less than 100 nM. `CC(C)COC(=O)Nc1cccc(Cc2nn(-c3cnn(CCO)c3)ccc2=O)c1` [Example 645, 2-methylpropyl [3-({1-[1-(2-hydroxyethyl)-1H-pyrazol-4-yl]-4-oxo-1,4-dihydropyridazin-3-yl}methyl)phenyl] carbamate] gave an IC50 of less than 100 nM. `CCn1cnc(-c2cccc(Cc3nn(-c4ccc(F)c(F)c4)ccc3=O)c2)n1` [Example 82, 1-(3,4-difluorophenyl)-3-[3-(1-ethyl-1H-1,2,4-triazol-3-yl)benzyl]pyridazin-4(1H)-one] gave an IC50 of less than 100 nM. With `CC(C)COC(=O)Nc1cccc(Cc2nn(-c3cnn(CC(C)C)c3)ccc2=O)c1` [Example 94, 2-methylpropyl [3-({1-[1-(2-methylpropyl)-1H-pyrazol-4-yl]-4-oxo-1,4-dihydropyridazin-3-yl}methyl)phenyl]carbamate] the IC50 was 100 to 1000 nM. In the case of `Cc1cc(COc2cnc(-c3cccc(Cc4nn(-c5cnn(C)c5)ccc4=O)c3)nc2)no1` [Example 285, 3-(3-{5-[(5-methylisoxazol-3-yl)methoxy]pyrimidin-2-yl}benzyl)-1-(1-methyl-1H-pyrazol-4-yl)pyridazin-4(1H)-one], the IC50 is reported as less than 100 nM. Work on `CCn1cnc(-c2cccc(Cc3nn(-c4cccc(C#N)c4)ccc3=O)c2)n1` [Example 84, 3-{3-[3-(1-Ethyl-1H-1,2,4-triazol-3-yl)benzyl]-4-oxopyridazin-1(4H)-yl}benzonitrile] yielded an IC50 of less than 100 nM. Work on `Cn1cc(-n2ccc(=O)c(Cc3cccc(-c4ncc(-c5cn[nH]c5)cn4)c3)n2)cn1` [Example 410, 1-(1-methyl-1H-pyrazol-4-yl)-3-{3-[5-(1H-pyrazol-4-yl)pyrimidin-2-yl]benzyl}pyridazin-4(1H)-one] yielded an IC50 of less than 100 nM. Compound `Cn1cc(-n2ccc(=O)c(Cc3cccc(-c4ncc(OCC5COCCO5)cn4)c3)n2)cn1` (single isomer, unassigned) [Example 347, 3-(3-{5-[(2R or-S)-1,4-dioxan-2-ylmethoxy]pyrimidin-2-yl}benzyl)-1-(1-methyl-1H-pyrazol-4-yl)pyridazin-4(1H)-one] has an IC50 of less than 100 nM.
